We go through twelve molecules from ChEMBL document CHEMBL1201862, “PubChem BioAssay data set” (2004).

What all share (assay): NCI-60 cell line screen, 48 h
Assay [1] has as its system K562.
In assay [2] the test system is SF-295.
The test system of assay [3] is A549.
The subject of assay [4] is M14.
For assay [5], the system named is MOLT-4.
Assay [6] deals with SF-268.
For assay [7], the system named is COLO 205.
For assay [8], the system named is LOX IMVI.
Assay [9] concerns NCI-H460.
The test system of assay [10] is UACC-257.
In assay [11] the test system is SK-MEL-5.
Assay [12] deals with HL-60.
Assay [13] has as its system SR.
The test system of assay [14] is UO-31.
Assay [15] concerns OVCAR-5.
In assay [16] the test system is HOP-92.
For assay [17], the system named is IGROV-1.
The subject of assay [18] is SF-539.
Assay [19] deals with BT-549.

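These data come from cells grown in 96-well plates and exposed to compound for 48 hours at five concentrations. Abbreviation: GI50, concentration required for 50% inhibition of growth.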 Activity calls are given as the source filed them. No stated cut-off is given here; in the data, active = GI50 up to about 1.1 µM and inactive = higher.

Turning to `C/C(=N\Nc1nc2ccccc2[nH]1)c1ccncn1`, the GI50 in [1] was 0.681 µM (active); in [2], 0.115 µM (active); in assay [3], 0.151 µM (active); in assay [4] it was 0.0951 µM (active); in assay [5] it was 0.17 µM (active); in [6], 0.0879 µM (active). In addition, the GI50 was 0.128 µM (active) in assay [7]; 0.0942 µM (active) in assay [8]; 0.0914 µM (active) in assay [9]; 1.41 µM (inactive) in [10]; 0.157 µM (active) in [11]; 0.0183 µM (active) in [12]. For the same molecule, the GI50 in assay [13] was 0.0811 µM (active); in assay [14], 0.114 µM (active); in assay [15] it was 4.11 µM (inactive); in assay [16], 0.0715 µM (active); in [17], 0.103 µM (active); in assay [18] it was 0.0394 µM (active).

In the case of `COc1ccc(C2C3=C(N=C4SC(C(C)=O)=C(C)N42)c2ccccc2CC3)cc1` (configuration not stated), the GI50 in [2] is > 100 µM (inactive); in assay [3], 83 µM (inactive); in assay [4] it was > 100 µM (inactive); in assay [6], > 100 µM (inactive); in assay [7], > 100 µM (inactive); in [8], 63.8 µM (inactive). Also, the GI50 in assay [19] was 81.8 µM (inactive); in [10], 73.3 µM (inactive); in assay [11] it was 50.5 µM (inactive); in assay [12], 10.1 µM (inactive); in assay [14] it was 91.6 µM (inactive); in [15], > 100 µM (inactive). For the same molecule, the GI50 was > 100 µM (inactive) in [16], 10.1 µM (inactive) in assay [17] and > 100 µM (inactive) in [18].

Take `Cc1occc(=O)c1O` [MALTOL]: the GI50 in assay [1], in assay [2], in [3], in [4], in [5] and in assay [6] was > 100 µM (inactive) in each case. Also, the GI50 in assay [7], in assay [8], in [9], in assay [10], in assay [11] and in assay [12] was > 100 µM (inactive) each time. Moreover, the GI50 in [13], in [14], in assay [15], in assay [16], in [17] and in assay [18] was > 100 µM (inactive) throughout.

As to `O=c1cc(N2CCOCC2)[nH]c(=O)n1-c1ccc(F)cc1`, the GI50 in assay [1], in [2], in assay [4], in assay [5], in assay [6] and in assay [7] was > 100 µM (inactive) each time. Moreover, the GI50 in assay [8], in assay [19], in assay [9], in [10], in [12] and in assay [15] was > 100 µM (inactive) in each case. Moreover, the GI50 in assay [17] and in [18] was > 100 µM (inactive) in each case.

Consider `COC(=O)/C=C\C(C#N)(C#N)/N=C/c1ccc(Br)s1`, for which the GI50 was 4.3 µM (inactive) in assay [1]; 17.7 µM (inactive) in [2]; 21.2 µM (inactive) in assay [3]; 3.1 µM (inactive) in [4]; 2.07 µM (inactive) in [5]; 18.5 µM (inactive) in assay [6]. For the same molecule, the GI50 in [7] is 2.31 µM (inactive); in assay [8] it was 2.16 µM (inactive); in [19] it was 4.79 µM (inactive); in assay [9], 20.8 µM (inactive); in assay [10], 15.1 µM (inactive); in [11] it was 11.9 µM (inactive). Besides, the GI50 is 1.85 µM (inactive) in assay [12]; 2.39 µM (inactive) in [14]; 9.64 µM (inactive) in assay [15]; 1.93 µM (inactive) in assay [16]; 14.9 µM (inactive) in [17].

On to `Cc1ccc2nc(-c3ccc(-c4nc5ccc(C)cc5o4)c(O)c3)oc2c1`, for which the GI50 in [1], in assay [3], in [4], in assay [5], in assay [6] and in assay [7] was > 100 µM (inactive) in each case. For the same molecule, the GI50 in assay [8], in [9], in assay [11], in assay [12], in [13] and in assay [14] was > 100 µM (inactive) throughout. Further, the GI50 in assay [15], in assay [16] and in [18] was > 100 µM (inactive) in each case.

Regarding `COC(=O)/C=C/c1ccc2c(c1)CCC2`, the GI50 in assay [1] is 30.8 µM (inactive); in assay [2] it was 56 µM (inactive); in assay [3], 46.1 µM (inactive); in assay [4], 64.3 µM (inactive); in assay [5], 41.9 µM (inactive); in assay [6], 42.9 µM (inactive). For the same molecule, the GI50 in [8] was > 100 µM (inactive); in assay [9], > 100 µM (inactive); in assay [10] it was 54 µM (inactive); in assay [11] it was 30.2 µM (inactive); in [12] it was 27.5 µM (inactive); in [13], 36.7 µM (inactive). Besides, the GI50 in assay [14] is 45 µM (inactive); in assay [15], > 100 µM (inactive); in assay [16], 5.28 µM (inactive); in assay [17] it was 36.5 µM (inactive); in [18] it was 72.8 µM (inactive).

With `Cc1ccc(/C(Cl)=C/C=C(C#N)C#N)cc1`, the GI50 in assay [1] is 0.817 µM (active); in assay [2], 13.3 µM (inactive); in [3], 21.9 µM (inactive); in [4], 2.51 µM (inactive); in [5], 0.65 µM (active); in assay [6], 5.9 µM (inactive). The GI50 in assay [7] was 3.31 µM (inactive); in assay [8], 1.17 µM (inactive); in assay [9], 3.8 µM (inactive); in assay [10] it was 2.52 µM (inactive); in assay [11], 1.8 µM (inactive); in assay [12] it was 2 µM (inactive). The GI50 in [13] is 1.37 µM (inactive); in [14], 4.58 µM (inactive); in assay [15], 2.6 µM (inactive); in assay [16], 3.26 µM (inactive); in [17], 3.59 µM (inactive); in [18], 2.64 µM (inactive).

`O=C(Oc1ccc(C(c2c(O)c3ccccc3oc2=O)c2c(O)c3ccccc3oc2=O)cc1)c1ccc(C(=O)c2ccccc2)cc1`: the GI50 was 22.1 µM (inactive) in assay [1]; 22 µM (inactive) in assay [2]; 25.3 µM (inactive) in assay [3]; 20.7 µM (inactive) in assay [5]; 25.6 µM (inactive) in [6]; 29.2 µM (inactive) in assay [7]. For the same molecule, the GI50 was 21.9 µM (inactive) in assay [8]; 22.1 µM (inactive) in [9]; 17.2 µM (inactive) in [10]; 29.3 µM (inactive) in assay [11]; 26.1 µM (inactive) in [13]; 17.8 µM (inactive) in [14]. Also, the figures for the GI50 in assay [15], in assay [17] and in assay [18] were 19.4 µM (inactive), 21.4 µM (inactive) and 17.3 µM (inactive), respectively.

Turning to `CC1=C(C)CC2(C=C(C(C)(C)C)C(=O)C(C(C)(C)C)=C2)SC1`, the GI50 in [1] is 30.3 µM (inactive); in assay [2], 16 µM (inactive); in [3] it was 21.9 µM (inactive); in [4], 24.7 µM (inactive); in assay [5], 27.4 µM (inactive); in [6], 19.5 µM (inactive). In addition, the GI50 was 17.6 µM (inactive) in assay [7]; 17.4 µM (inactive) in assay [8]; 27 µM (inactive) in assay [9]; 26.6 µM (inactive) in [10]; 13.2 µM (inactive) in assay [11]; 18.3 µM (inactive) in assay [12]. Further, the GI50 in assay [13] was 26.5 µM (inactive); in assay [14] it was 15.7 µM (inactive); in assay [15], 20.1 µM (inactive); in assay [16] it was 19.2 µM (inactive); in assay [17], 13.9 µM (inactive); in assay [18], 18.3 µM (inactive).

For `COC(=O)c1c[nH]cc1CCCCc1c[nH]cc1C(=O)OC`, the GI50 in assay [1] was > 100 µM (inactive); in assay [2], 73.3 µM (inactive); in [3] it was > 100 µM (inactive); in assay [5], > 100 µM (inactive); in assay [6] it was > 100 µM (inactive); in assay [7], > 100 µM (inactive). For the same molecule, the GI50 in [8] was > 100 µM (inactive); in assay [9], > 100 µM (inactive); in assay [10] it was > 100 µM (inactive); in assay [12], 73.3 µM (inactive); in [13], > 100 µM (inactive); in assay [15], > 100 µM (inactive). For the same molecule, the results for the GI50 in assay [16], in assay [17] and in assay [18] were 58.6 µM (inactive), > 100 µM (inactive) and > 100 µM (inactive), respectively.

For the molecule `COC(=O)CCCC1(CCCC(=O)OC)CCCCCCCCC(CCCC(=O)OC)(CCCC(=O)OC)C(=O)C1=O`, the GI50 in [1] was 4.78 µM (inactive); in [2] it was > 100 µM (inactive); in [3] it was 11.6 µM (inactive); in [4], 70.1 µM (inactive); in assay [6], 19.2 µM (inactive); in assay [7], > 100 µM (inactive). Further, the GI50 in assay [8] is 23 µM (inactive); in assay [9] it was 88.1 µM (inactive); in [10] it was > 100 µM (inactive); in assay [11], 53.1 µM (inactive); in assay [12], 2.17 µM (inactive); in [13] it was 20.4 µM (inactive). The GI50 is 0.0502 µM (active) in [14]; > 100 µM (inactive) in assay [15]; 20.6 µM (inactive) in [16]; 18.4 µM (inactive) in [17]; 25.2 µM (inactive) in assay [18].
